Target: human LPA1 receptor (Homo sapiens (Human), UniProt Q92633)
Experiment: Beta-arrestin recruitment assay to determine IC50 values for human LPAR1
Assay type: cell-based
Details: antagonist mode, Tango EDG2-bla U2OS cells, LPA 18:1 500 nM final
In short: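 Tango EDG2-bla U2OS cells: LPA-driven beta-arrestin/TEV protease recruitment releases Gal4-VP16, inducing beta-lactamase reporter read with live-cell substrate. Cells seeded 20 h at 37 °C beforehand. IC50 is antagonist concentration inhibiting 50% of maximal response.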

Chain of human LPA1 receptor (Q92633 whole entry): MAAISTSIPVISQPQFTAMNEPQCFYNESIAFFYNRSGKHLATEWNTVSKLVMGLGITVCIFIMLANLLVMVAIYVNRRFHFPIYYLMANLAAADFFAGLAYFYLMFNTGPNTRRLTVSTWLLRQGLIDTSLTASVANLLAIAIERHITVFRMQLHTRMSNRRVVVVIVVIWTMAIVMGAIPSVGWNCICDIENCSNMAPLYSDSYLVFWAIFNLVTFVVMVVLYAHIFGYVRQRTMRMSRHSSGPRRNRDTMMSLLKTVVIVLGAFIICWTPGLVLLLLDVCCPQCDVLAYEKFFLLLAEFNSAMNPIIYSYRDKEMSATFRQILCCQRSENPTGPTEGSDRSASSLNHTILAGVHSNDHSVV

Row | IC50 [nM] | Molecule
1 | 14 | Cc1ccc(NC(=O)C2(c3ccccc3C3CCCCC3)CN(C(=O)CC(C)(C)C(=O)O)C2)c(OC(F)F)n1 [Ex 31-5, 4-(3-(2-cyclohexylphenyl)-3-((2-(difluoromethoxy)-6-methylpyridin-3-yl)carbamoyl)azetidin-1-yl)-2,2-dimethyl-4-oxobutanoic acid]
2 | 79 | COC(=O)C1(OC(=O)N2CC(C(=O)Nc3ccc(C)nc3OC(F)F)(c3ccccc3C(C)C)C2)CC1 [Ex 14-7, 1-(methoxycarbonyl)cyclopropyl 3-((2-(difluoromethoxy)-6-methylpyridin-3-yl)carbamoyl)-3-(2-isopropylphenyl)azetidine-1-carboxylate]
3 | 18 | CCOC(=O)C(F)(F)CC(=O)N1CC(C(=O)Nc2ccc(C)nc2OC(F)F)(c2ccccc2C(C)C)C1 [Ex 12-111, ethyl 4-(3-((2-(difluoromethoxy)-6-methylpyridin-3-yl)carbamoyl)-3-(2-isopropylphenyl)azetidin-1-yl)-2,2-difluoro-4-oxobutanoate]
4 | 100 | Cc1ccc(NC(=O)C2(c3ccccc3C(C)C)CN(S(=O)(=O)c3cn[nH]c3C(=O)O)C2)c(OC(F)F)n1 [Ex 13-23, 4-((3-((2-(difluoromethoxy)-6-methylpyridin-3-yl)carbamoyl)-3-(2-isopropylphenyl)azetidin-1-yl)sulfonyl)-1H-pyrazole-5-carboxylic acid]
5 | 76 | 1-((3-((3-(difluoromethoxy)-5-methylpyridin-2-yl)carbamoyl)-3-(2-isopropylphenyl)azetidine-1-carbonyl)oxy)cyclopropane-1-carboxylic acid [Ex 83-3]
6 | 7 | CCCN(CC(=O)O)CC(=O)N1CC(C(=O)Nc2ccc(C)nc2OC(F)F)(c2ccccc2C(C)C)C1 [Ex 42, N-(2-(3-((2-(difluoromethoxy)-6-methylpyridin-3-yl)carbamoyl)-3-(2-isopropylphenyl)azetidin-1-yl)-2-oxoethyl)-N-propylglycine]
7 | 11 | COC(=O)c1cc(N2CC(C(=O)Nc3ccc(C)nc3OC(F)F)(c3ccccc3C(C)C)C2)ncn1 [Ex 18-12, methyl 6-(3-((2-(difluoromethoxy)-6-methylpyridin-3-yl)carbamoyl)-3-(2-isopropylphenyl)azetidin-1-yl)pyrimidine-4-carboxylate]
8 | 19 | Cc1ccc(NC(=O)C2(c3ccccc3C(C)C)CN(C(=O)Cc3cc(O)n[nH]3)C2)c(OC(F)F)n1 [Ex 12-24, N-(2-(difluoromethoxy)-6-methylpyridin-3-yl)-1-(2-(3-hydroxy-1H-pyrazol-5-yl)acetyl)-3-(2-isopropylphenyl)azetidine-3-carboxamide]
9 | 55 | Cc1ccc(NC(=O)C2(c3ccccc3C(C)C)CN(Cc3nnn[nH]3)C2)c(OC(F)F)n1 [Ex 11-8, 1-((1H-tetrazol-5-yl)methyl)-N-(2-(difluoromethoxy)-6-methylpyridin-3-yl)-3-(2-isopropylphenyl)azetidine-3-carboxamide]
10 | 4 | COC(=O)CCC(=O)N1CCC(C(=O)Nc2ccc(C)nc2OC(F)F)(c2ccccc2C(C)C)CC1 [Ex 12-72, methyl 4-(4-((2-(difluoromethoxy)-6-methylpyridin-3-yl)carbamoyl)-4-(2-isopropylphenyl)piperidin-1-yl)-4-oxobutanoate]
11 | 1760 | CCOC(=O)CC1(S(=O)(=O)N2CC(C(=O)Nc3ccc(C)nc3OC(F)F)(c3ccccc3C(C)C)C2)CC1 [Ex 13-13, ethyl 2-(1-((3-((2-(difluoromethoxy)-6-methylpyridin-3-yl)carbamoyl)-3-(2-isopropylphenyl)azetidin-1-yl)sulfonyl)cyclopropyl)acetate]
12 | 4 | CCOc1ccc(NC(=O)C2(c3ccccc3C(C)C)CN(S(N)(=O)=O)C2)c(OC)n1 [Ex 15-8, N-(6-ethoxy-2-methoxypyridin-3-yl)-3-(2-isopropylphenyl)-1-sulfamoylazetidine-3-carboxamide]
13 | 775 | Cc1ccc(NC(=O)C2(c3ccccc3C(C)C)CN(Cc3cnn(C)c3)C2)c(OC(F)F)n1 [Ex 11-23, N-(2-(difluoromethoxy)-6-methylpyridin-3-yl)-3-(2-isopropylphenyl)-1-((1-methyl-1H-pyrazol-4-yl)methyl)azetidine-3-carboxamide]
14 | 112 | Cc1ccc(NC(=O)C2(c3cc(F)ccc3C(C)C)CNC2)c(OC(F)F)n1 [Ex 37, N-(2-(difluoromethoxy)-6-methylpyridin-3-yl)-3-(5-fluoro-2-isopropylphenyl)azetidine-3-carboxamide]
15 | 4 | Cc1ccc(NC(=O)C2(c3ccccc3C(C)C)CN(C(=O)OCC(C)(C)C(=O)O)C2)c(OC(F)F)n1 [Ex 14-10, 3-((3-((2-(difluoromethoxy)-6-methylpyridin-3-yl)carbamoyl)-3-(2-isopropylphenyl)azetidine-1-carbonyl)oxy)-2,2-dimethylpropanoic acid]
16 | 43 | Cc1ccc(NC(=O)C2(c3ccccc3C(C)C)CN(Cc3cc(C(=O)O)no3)C2)c(OC(F)F)n1 [Ex 11-35, 5-((3-((2-(difluoromethoxy)-6-methylpyridin-3-yl)carbamoyl)-3-(2-isopropylphenyl)azetidin-1-yl)methyl)isoxazole-3-carboxylic acid]

Row | IC50 [nM] | Molecule
17 | 15 | Cc1ccc(NC(=O)C2(c3ccccc3C(C)C)CN(C(=O)CC3(C(=O)O)CCOCC3)C2)c(OC(F)F)n1 [Ex 12-122, 4-(2-(3-((2-(difluoromethoxy)-6-methylpyridin-3-yl)carbamoyl)-3-(2-isopropylphenyl)azetidin-1-yl)-2-oxoethyl)tetrahydro-2H-pyran-4-carboxylic acid]
18 | 7 | Cc1ccc(NC(=O)C2(c3ccccc3C(C)C)CN(CCCC3(C(=O)O)CC3)C2)c(OC(F)F)n1 [Ex 11-71, 1-(3-(3-((2-(difluoromethoxy)-6-methylpyridin-3-yl)carbamoyl)-3-(2-isopropylphenyl)azetidin-1-yl)propyl)cyclopropane-1-carboxylic acid]
19 | 15 | COc1cc(Cl)cnc1NC(=O)C1(c2ccccc2C(C)C)CN(S(N)(=O)=O)C1 [Ex 81-1, N-(5-chloro-3-methoxypyridin-2-yl)-3-(2-isopropylphenyl)-1-sulfamoylazetidine-3-carboxamide]
20 | 29 | Cc1ccc(NC(=O)C2(c3ccccc3C(C)C)CN(CCOCC(=O)O)C2)c(OC(F)F)n1 [Ex 11-75, 2-(2-(3-((2-(difluoromethoxy)-6-methylpyridin-3-yl)carbamoyl)-3-(2-isopropylphenyl)azetidin-1-yl)ethoxy)acetic acid]
21 | 22 | NS(=O)(=O)N1CC(C(=O)Nc2ncc(Cl)cc2OC(F)F)(c2ccccc2C2CCCC2)C1 [Example 81-6, N-(5-chloro-3-(difluoromethoxy)pyridin-2-yl)-3-(2-cyclopentylphenyl)-1-sulfamoylazetidine-3-carboxamide]
22 | 13 | Cc1ccc(NC(=O)C2(c3ccccc3C3CCCCC3)CNC2)c(OC(F)F)n1 [Ex 27, 3-(2-cyclohexylphenyl)-N-(2-(difluoromethoxy)-6-methylpyridin-3-yl)azetidine-3-carboxamide]
23 | 7 | Cc1ccc(NC(=O)C2(c3ccccc3C(C)C)CCN(C(=O)Cn3nccn3)CC2)c(OC(F)F)n1 [Ex 12-22, 1-(2-(2H-1,2,3-triazol-2-yl)acetyl)-N-(2-(difluoromethoxy)-6-methylpyridin-3-yl)-4-(2-isopropylphenyl)piperidine-4-carboxamide]
24 | 47 | CC(=O)NS(=O)(=O)N(C)CC(=O)N1CC(C(=O)Nc2ccc(C)nc2OC(F)F)(c2ccccc2C(C)C)C1 [Ex 16-5, 1-(N-(N-acetylsulfamoyl)-N-methylglycyl)-N-(2-(difluoromethoxy)-6-methylpyridin-3-yl)-3-(2-isopropylphenyl)azetidine-3-carboxamide]
25 | 5 | Cc1ccc(NC(=O)C2(c3ccccc3C(C)C)CN(CCO)C2)c(OC(F)F)n1 [Ex 11-2, N-(2-(difluoromethoxy)-6-methylpyridin-3-yl)-1-(2-hydroxyethyl)-3-(2-isopropylphenyl)azetidine-3-carboxamide]
26 | 44 | (R)-2-amino-5-(3-((2-(difluoromethoxy)-6-methylpyridin-3-yl)carbamoyl)-3-(2-isopropylphenyl)azetidin-1-yl)-5-oxopentanoic acid [Ex 49]
27 | 165 | COCCN1CCC(CC(=O)N2CC(C(=O)Nc3ccc(C)nc3OC(F)F)(c3ccccc3C(C)C)C2)CC1 [Ex 12-139, N-(2-(difluoromethoxy)-6-methylpyridin-3-yl)-3-(2-isopropylphenyl)-1-(2-(1-(2-methoxyethyl)piperidin-4-yl)acetyl)azetidine-3-carboxamide]
28 | 457 | COC(=O)C(C)(C)CCN1CC(C(=O)Nc2ncc(Cl)cc2OC(F)F)(c2ccccc2C(C)C)C1 [Ex 78-1, methyl 4-(3-((5-chloro-3-(difluoromethoxy)pyridin-2-yl)carbamoyl)-3-(2-isopropylphenyl)azetidin-1-yl)-2,2-dimethylbutanoate]
29 | 664 | Cc1ccc(NC(=O)C2(c3ccccc3C3CC3)CNC2)c(OC(F)F)n1 [Ex 23, 3-(2-cyclopropylphenyl)-N-(2-(difluoromethoxy)-6-methylpyridin-3-yl)azetidine-3-carboxamide]
30 | 103 | Cc1ccc(NC(=O)C2(c3ccccc3C(C)C)CN(C(=O)CN3CCC(C(=O)O)CC3)C2)c(OC(F)F)n1 [Ex 48, 1-(2-(3-((2-(difluoromethoxy)-6-methylpyridin-3-yl)carbamoyl)-3-(2-isopropylphenyl)azetidin-1-yl)-2-oxoethyl)piperidine-4-carboxylic acid]
31 | 27 | Cc1ccc(NC(=O)C2(c3ccccc3C(C)C)CN(C(=O)CC(C)C(=O)O)C2)c(OC(F)F)n1 (centres unmarked) [Ex 12-78, 4-(3-((2-(difluoromethoxy)-6-methylpyridin-3-yl)carbamoyl)-3-(2-isopropylphenyl)azetidin-1-yl)-2-methyl-4-oxobutanoic acid]
32 | 17 | Cc1ccc(NC(=O)C2(c3ccccc3C(C)C)CCN(S(=O)(=O)CCC(=O)OCc3ccccc3)CC2)c(OC(F)F)n1 [Ex 13-7, benzyl 3-((4-((2-(difluoromethoxy)-6-methylpyridin-3-yl)carbamoyl)-4-(2-isopropylphenyl)piperidin-1-yl)sulfonyl)propanoate]

— US12344597B2, “Alkoxy-substituted pyridinyl derivatives as LPA1 receptor antagonists and their use in the treatment of fibrosis” (IDORSIA PHARMACEUTICALS LTD, priority 2018, dated 2025)
